# Laboratory results published in patent US20250019379A1, “NEW CRYSTAL FORM OF COMPOUND, AND PREPARATION METHOD THEREFOR AND USE THEREOF” (E-nitiate Biopharmaceuticals (Hangzhou) Co., Ltd, priority 2021, published 2025).
# Where “and” joins values, the source holds several entries; their conditions need not be identical. Identical values can stand only once. Marks after values point to notes of the source that are not given here.
# How the values were obtained:
# [1] = tested on: atopic dermatitis animal model; assay: Atopic dermatitis animal model (dinitrochlorobenzene induced); assay type: in vivo, BALB/C mice; conditions: for Inhibition rate of auricular thickening / Inhibition rate of skin thickening: 10th day of treatment
# Text: BALB/C mice, 55 pieces, female, were 6 weeks old at the time of purchase and 8 weeks old at the time of experiment, weighing 18 g-20 g. The animals were from Shanghai Lingchang Biotechnology Co, Ltd (SCXK (Shanghai) 2018-0003), experimental animal production certificate number 20180003012342: experimental animal use license number; SYXK(Shanghai)2020-0001 (Via Biotechnology (Shanghai) Ltd.).
# Modeling and administration method; Use depilatory cream to remove the hair of an area of about 5 cm×2 cm from the top of the head to the back of each animal. The application time of the depilatory cream should be controlled within 2 minutes. Wash the depilated area with warm water and wash off the depilatory agent, immediately use a hair dryer to dry the animal's hair, and place the animal on a 37° C. constant-temperature electric blanket for 1 h-2 h. After the animal moves freely, place it in a breeding cage and recover for 1 day (if the animal's skin is red, swollen and damaged after hair removal, it will its elimination). On the second day, 42 animals with normal skin were selected and randomly divided into groups according to body weight, with 6 animals in each group, totaling 7 groups. Except for the G1 normal control group, each animal in the other groups was evenly smeared with 200 μL of 0.5 wt % dinitrochlorobenzene solution (the solvent was acetone and olive oil with a mass ratio of 3:1) on the back and auricle for three consecutive days every day. Induction (the first stage of induction), the second stage of induction started after 14 days, and was induced with 1 wt % dinitrochlorobenzene solution (the solvent was acetone and olive oil with a mass ratio of 3:1) every three days until the end of the experiment, start treatment and administration at the same time, and group administration is shown in Table 6.
# Skin thickness (double layer): Use a vernier caliper to measure the double layer thickness of the back skin on the 1 day before modeling, and on the 14th, 17th, 20th, 23rd, 26th, and 28th days after modeling.
# Auricle thickness: Use a vernier caliper to measure the thickness of the right auricle 1 day before modeling, and on days 14, 17, 20, 23, 26, and 28 after modeling.
# AD-SI score: The condition score refers to the clinical SI scoring standard, and scores three indicators: skin color/erythema, scaly erythema, scaly/peeling/lichenification, thickening, and thickening/edema degree. The total score is 12 points. Scoring standard as follows:
# Erythema/skin color: 0 points, none; 1 points, slight: light red; 2 points, moderate: red; 3 points, significant: dark red; 4 points, very obvious: extremely deep red.
# Scaling/peeling/lichenification: 0 points, none; 1 point, slight: there are scales/peeling/lichenification on part of the epidermis, mainly subtle; 2 points, moderate: most of the skin surface is completely or incompletely covered with Scaling/peeling/lichenification, flaky; 3 points, significant: almost all skin is covered with scales/peeling/lichenification, and the scales/peeling/lichenification are thick and layered; 4 points, very obvious: all skin is covered with Scaling/peeling/lichenification, very thick and layered.
# Thickening/edema: 0 points, none: flush with normal skin; 1 points, slight: slightly higher than the normal skin surface: 2 points, moderate: moderately raised, with round or sloped plaque edges: 3 points, obvious Score: The plaque is hypertrophic and the bulge is obvious; 4 points, very significant: it is highly thickened and the bulge is very obvious. Skin/auricle hyperplasia inhibition rate (%)=1−[(skin/auricle thickness of the treatment group−skin/auricle thickness of the blank control group)/skin/auricle thickness of the negative control group−skin/auricle of the blank control group thickness)]%.
# All data are expressed as Mean±SD or Mean±SEM. Use the statistical analysis software SPSS23.0 to conduct normal distribution and homogeneity of variance tests on the data. […]
# psoriasis animal model = assay: Psoriasis animal model (imiquimod cream induced); assay type: in vivo, C57/BL 6J mice; conditions: 30 mg/kg oral twice a day
# Text: C57/BL 6J mice, 75, female, 7-8 weeks old, weight 18 g-20 g. The animals were from Zhejiang Weitong Lihua Experimental Animal Technology Co., Ltd. (SCXK (Zhejiang) 2019-0001), experimental animal production certificate number 20210107Abzz0619000247; experimental animal use license number: SYXK (Shanghai) 2020-0001 (Via Biotechnology (Shanghai Co., Ltd).
# Modeling and administration method: Use depilatory cream to remove hair from an area of about 2 cm×3 cm on the back of each animal. Control the application time of depilatory cream within 2 minutes. Wash the depilated area with warm water, wash off the depilatory agent, and use immediately. Dry the animal's hair with a hair dryer, and place the animal on a constant-temperature electric blanket at 37° C. for 1 h-2 h. After the animal moves freely, it is placed in a cage for normal rearing and recovery for 1 day (if any animal has red, swollen and damaged skin after hair removal, remove it). On the second day, 54 animals with normal skin were selected and randomly grouped according to body weight, with 9 animals in each group, a total of 6 groups. Each animal in the G2-G6 group was evenly applied with 60 mg (60 μL) of 5 wt % imiquimod cream (Aldara) on the back every day for seven consecutive days.
# Skin thickness (double-layer): Use a vernier caliper to measure the double-layer thickness of the back skin before drug administration and modeling, and on days 1, 3, 5, and 7 after drug administration.
# PASI score: The condition score refers to the clinical PASI scoring standard, and scores three indicators: erythema, scale, and thickness. The total score is 12 points. The scoring standards are as follows:
# Erythema: 0 points, none; 1 points, slight: light red; 2 points, moderate: red; 3 points, significant: dark red; 4 points, very obvious: extremely deep red.
# Scaling: 0 points, none; 1 point, slight: there are scales on part of the epidermis, mainly fine scales; 2 points, moderate: most of the skin surface is completely or incompletely covered with scales, in a flaky form; 3 points, Significant: almost all skin is covered with scales, and the scales are thick and layered; 4 points, very obvious: all the skin is covered with scales, and the scales are thick and layered.
# Plaque thickening degree: 0 points, none: flush with normal skin; 1 points, slight: slightly higher than the skin surface: 2 points, moderate: moderately raised, with round or sloped plaque edges; 3 points, obvious Score: The plaque is hypertrophic and the bulge is obvious; 4 points, very significant: it is highly thickened and the bulge is very obvious.
# Skin proliferation inhibition rate (%)=1−[(skin thickness of the treatment group on the 7th day−skin thickness of the blank control group on the 7th day)/skin thickness of the negative control group on the 7th day−skin thickness of the blank control group on the 7th day)]%.
# All data are expressed as Mean t SEM. The statistical analysis software SPSS23.0 was used to conduct normal distribution and homogeneity of variance tests on the data. Based on the results, the single-factor analysis of variance method was selected and the homogeneity of variance test was selected based on the results. *P<0.05 will be considered a statistically significant difference.
# [2] = 10 mg/kg oral twice a day, Day 0
# [3] = 10 mg/kg oral twice a day, Day 1
# [4] = 10 mg/kg oral twice a day, Day 4
# [5] = 10 mg/kg oral twice a day, Day 7
# [6] = 10 mg/kg oral twice a day, Day 10
# [7] = 30 mg/kg oral twice a day, Day 0
# [8] = 30 mg/kg oral twice a day, Day 1
# [9] = 30 mg/kg oral twice a day, Day 4
# [10] = 30 mg/kg oral twice a day, Day 7
# [11] = 30 mg/kg oral twice a day, Day 10
compound,measurement,setting,value
"CC[C@@H]1CN(C(=O)NCC(F)(F)F)C[C@@H]1c1cnc2cnc3[nH]ccc3n12 [Upatinib, Upadacitinib, reference compound]",Inhibition rate of auricular thickening,[1]; 10 mg/kg oral twice a day,24.14%
same,Inhibition rate of skin thickening,[1]; 10 mg/kg oral twice a day,20.40%
same,AD-SI score,[1]; [2],0.00 points
same,Average auricle thickness,[1]; [2],0.20 ± 0.01 mm
same,Average skin thickness (double layer),[1]; [2],0.60 ± 0.02 mm
same,AD-SI score,[1]; [3],0.00 points
same,Average auricle thickness,[1]; [3],0.24 ± 0.01 mm
same,Average skin thickness (double layer),[1]; [3],0.89 ± 0.04 mm
same,AD-SI score,[1]; [4],1.00 ± 0.00 points
same,Average auricle thickness,[1]; [4],0.32 ± 0.03**^ mm
same,Average skin thickness (double layer),[1]; [4],1.07 ± 0.05 mm
same,AD-SI score,[1]; [5],6.50 ± 1.05 points
same,Average auricle thickness,[1]; [5],0.51 ± 0.05 mm
same,Average skin thickness (double layer),[1]; [5],2.06 ± 0.25 mm
same,AD-SI score,[1]; [6],7.17 ± 1.47 points
same,Average auricle thickness,[1]; [6],0.65 ± 0.03 mm and 0.65 mm
same,Average skin thickness (double layer),[1]; [6],2.23 ± 0.14 mm and 2.23 mm
"C[C@@H]1CCN(C(=O)CC#N)C[C@@H]1N(C)c1ncnc2[nH]ccc12 [Tofacitinib, reference compound]",Inhibition rate of auricular thickening,[1]; 30 mg/kg oral twice a day,25.86%
same,Inhibition rate of skin thickening,[1]; 30 mg/kg oral twice a day,27.86%
same,AD-SI score,[1]; [7],0.00 points
same,Average auricle thickness,[1]; [7],0.19 ± 0.01 mm
same,Average skin thickness (double layer),[1]; [7],0.63 ± 0.03 mm
same,AD-SI score,[1]; [8],0.00 points
same,Average auricle thickness,[1]; [8],0.22 ± 0.01 mm
same,Average skin thickness (double layer),[1]; [8],0.99 ± 0.03 mm
same,AD-SI score,[1]; [9],0.17 ± 0.41 points
same,Average auricle thickness,[1]; [9],0.28 ± 0.01 mm
same,Average skin thickness (double layer),[1]; [9],1.13 ± 0.1 mm
same,AD-SI score,[1]; [10],7.17 ± 0.98 points
same,Average auricle thickness,[1]; [10],0.44 ± 0.03 mm
same,Average skin thickness (double layer),[1]; [10],1.78 ± 0.11 mm
same,AD-SI score,[1]; [11],6.33 ± 1.37 points
same,Average auricle thickness,[1]; [11],0.64 ± 0.05 mm and 0.64 mm
same,Average skin thickness (double layer),[1]; [11],2.08 ± 0.13 mm and 2.08 mm
same,Inhibition rate of skin thickening,psoriasis animal model; 7th day of treatment,69.2%
same,Average skin thickness (double layer),psoriasis animal model; Day 0,0.51 ± 0.01 mm
same,PASI score,psoriasis animal model; Day 0,0.0 points
same,Average skin thickness (double layer),psoriasis animal model; Day 1,0.66 ± 0.02 mm
same,PASI score,psoriasis animal model; Day 1,0.0 points
same,Average skin thickness (double layer),psoriasis animal model; Day 3,1.28 ± 0.09** mm
same,PASI score,psoriasis animal model; Day 3,4.6 ± 0.50 points
same,Average skin thickness (double layer),psoriasis animal model; Day 5,1.09 ± 0.06*** mm
same,PASI score,psoriasis animal model; Day 5,4.9 ± 0.42*** points
same,Average skin thickness (double layer),psoriasis animal model; Day 7,1.05 ± 0.04*** mm and 1.05 mm
same,PASI score,psoriasis animal model; Day 7,2.8 ± 0.43*** points
